Results reported in PubChem BioAssay AID588552 (Johns Hopkins Ion Channel Center, 2011).
Active and inactive are the calls of the source.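 Rule for the calls: active = compounds whose IC50 for blocking RGS4-driven GTP breakdown by the G-protein falls below a set limit; inactive = IC50 above a set limit.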

The compounds below were run against Regulator of G-protein signaling 4 (Rattus norvegicus) (UniProt P49799) (assay: RGS4-stimulated Galphai1 GTP hydrolysis blockers – biochemical, rat RGS4, steady-state, receptor-independent, malachite green, confirmation (AID 588552)). Details: RGS4-stimulated Galphai1 GTPase, malachite green phosphate absorbance.
Regulator of G-protein signaling 4 (Rattus norvegicus), sequence (P49799 whole entry, looked up): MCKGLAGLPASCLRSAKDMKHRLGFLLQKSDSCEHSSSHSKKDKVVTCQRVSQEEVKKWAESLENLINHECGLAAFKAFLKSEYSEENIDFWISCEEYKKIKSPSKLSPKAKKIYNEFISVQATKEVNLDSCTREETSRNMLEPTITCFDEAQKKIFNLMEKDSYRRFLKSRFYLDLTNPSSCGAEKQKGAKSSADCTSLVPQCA

| SMILES | IC50 |
| --- | --- |
| CN1C(=O)/C(=C\c2ccc(Br)s2)C(=O)NC1=S | 14.8 µM |
| COc1ccc2cc(C3C(C#N)=C(N)OC(C)=C3C(C)=O)c(Cl)nc2c1 (stereo not drawn) | > 110 µM (inactive) |
| O=C/C=C/c1c(-c2ccccc2)cc2oc3ccccc3cc1-2 | > 110 µM (inactive) |
| O=C(/C=C/c1ccc([N+](=O)[O-])cc1)c1ccco1 | > 110 µM (inactive) |
| COc1ccc(C(C[N+](=O)[O-])c2c(-c3ccccc3)cc3ccccn23)cc1OC (stereo not drawn) | > 110 µM (inactive) |
| O=C(O)c1ccc(/C=C2\COc3ccccc3C2=O)cc1 | 5.1 µM |
| O=C(O)c1ccc2c(c1)C(=O)N(c1cccc(C(=O)/C=C/c3ccccc3)c1)C2=O | 23.2 µM |
| O=C1C=C(NC2=CC3OC(c4ccccc4)OCC3OC2=O)CCC1 (stereo not drawn) | 34 µM |
| CN1C/C(=C/c2ccncc2)C(=O)/C(=C/c2ccncc2)C1 | 37.1 µM |
| N#C/C(=C/c1ccc(Cl)c([N+](=O)[O-])c1)c1ccccn1 | > 110 µM (inactive) |
| N[C@@H](Cc1cc(Br)c(O)c(Br)c1)C(=O)O | > 110 µM (inactive) |
| Cc1c(NC(=O)c2coc(=O)c(Br)c2)c(=O)n(-c2ccccc2)n1C | > 110 µM (inactive) |
| O=C1/C(=C/c2ccncc2)CCC/C1=C\c1ccncc1 | 9.9 µM |
| CCCN1CCc2cc(O)cc3c2[C@H]1Cc1ccc(O)c(O)c1-3 | 11 µM |
| CN1C(=O)S/C(=C\c2ccccc2OCc2ccc(C(=O)O)cc2)C1=O | 76.7 µM |
| O=C1NC(=S)N(c2ccccc2F)C(=O)/C1=C\c1cccs1 | 35.6 µM |
| Cc1cccc(N2C(=O)/C(=C/c3ccc(C(=O)O)cc3)c3ccccc3C2=O)c1 | 31.8 µM |
| Cc1ccc(/C=C/C(=O)N2CC(C)CC(C)C2)o1 (stereo not drawn) | 16.7 µM |
| CCOC(=O)C1=C(O)/C(=C\c2cccc(OC)c2)N=C1C | > 110 µM (inactive) |
| CN(C)c1ccc(C(C[N+](=O)[O-])c2c(N)n(C)c(=O)n(C)c2=O)c(F)c1C#N (stereo not drawn) | > 110 µM (inactive) |

| SMILES | IC50 |
| --- | --- |
| O=C(CCNc1ccc(F)cc1)c1ccco1 | > 110 µM (inactive) |
| COc1ccc(NC(=O)/C(Cl)=C(/Cl)S(=O)Cc2ccccc2)cn1 (stereo not drawn) | 1 µM |
| COc1cccc(/C=C/C(=O)c2c(O)cc(C)oc2=O)c1O | > 110 µM (inactive) |
| CN1CCc2cc(O)cc3c2[C@H]1Cc1ccc(O)c(O)c1-3 | 9.7 µM |
| Cc1ccc(C(C2=C(O)CC(C)(C)CC2=O)C2C(=O)CC(C)(C)CC2=O)o1 (stereo not drawn) | > 110 µM (inactive) |
| NC(=O)N/N=C/c1c(Sc2nnnn2-c2ccccc2)nc2ccccn2c1=O | 55.5 µM |
| CC(C)OP(=O)(OC(C)C)/C(C=O)=N\Nc1ccc([N+](=O)[O-])cc1 | > 110 µM (inactive) |
| O=C1/C(=C\c2ccc(Cl)cc2Cl)N2CCC1CC2 | > 110 µM (inactive) |
| CCOCCCNC(=O)/C(C#N)=C\c1ccc([N+](=O)[O-])o1 | 10.7 µM |
| O=[N+]([O-])c1ccc(O)c(/C=N/NC(=S)Nc2ccc(Cl)cc2Cl)c1 | > 110 µM (inactive) |
| Cc1cc2nc(CS)[nH]c2cc1C | > 110 µM (inactive) |
| Cc1ccc(C(C2C(=O)CC(C)(C)CC2=O)C2C(=O)CC(C)(C)CC2=O)s1 | 91.4 µM |
| COC(=O)CSc1[nH]c2cc(C)ccc2c1[N+](=O)[O-] | > 110 µM (inactive) |
| Cc1cc(-c2n[nH]c(=S)n2/N=C/C(Br)=C/c2ccccc2)n[nH]1 | 4 µM |
| CC(C)(C)c1ccc(Cn2nnc3c(=O)[nH]c(C4CCN(C(=O)Cc5cccs5)CC4)nc32)cc1 | > 110 µM (inactive) |
| Cc1nc2c(=O)n(C)c(=O)n(C)c2nc1Cl | > 110 µM (inactive) |
| CN(C)C(=O)COc1ccc(C(=O)/C=C/c2cccnc2)cc1 | 59.4 µM |
| Cc1csc(NC(=O)COCC(=O)O)c1-c1nc2ccccc2s1 | > 110 µM (inactive) |
| COc1ccc(NC(=O)/C(C#N)=C\c2ccc(Sc3nncn3C)c([N+](=O)[O-])c2)cc1 | > 110 µM (inactive) |
| O=C(O)c1ccc(/C=C/C(=O)c2ccc3c(c2)OCCCO3)cc1 | 34.7 µM |

| SMILES | IC50 |
| --- | --- |
| CN(C)c1oc(-c2ccccc2[N+](=O)[O-])nc1C#N | 18.6 µM |
| CCOC(=O)/C=C/C(=O)OCC(=O)N1CCN(C(=O)c2ccco2)CC1 | > 110 µM (inactive) |
| Cn1c(OCc2ccco2)nc2c1c(=O)n(Cc1ccc(Cl)c(Cl)c1)c(=O)n2C | > 110 µM (inactive) |
| Oc1c(Cl)cc(Cl)c2c1NCCC2 | 37.8 µM |
| O=C(N/N=C/c1cc([N+](=O)[O-])ccc1O)NC12CC3CC(CC(C3)C1)C2 | > 110 µM (inactive) |
| O=C1N=c2ccccc2=C1c1c(O)n(-c2cccc(F)c2)[nH]c1=O | 55.8 µM |
| COC(=O)CSc1[nH]c2ccccc2c1[N+](=O)[O-] | 55 µM |
| CCOCCCNC(=O)/C(C#N)=C\c1ccc(Cl)c([N+](=O)[O-])c1 | > 110 µM (inactive) |
| COc1ccc(OC)c(N2C(=O)NC(=O)/C(=C/c3ccc([N+](=O)[O-])s3)C2=O)c1 | 18 µM |
| CC1=NOC(=O)/C1=C/c1ccc(O)cc1 | > 110 µM (inactive) |
| O=C1/C(=C\c2ccc(Cl)c(Cl)c2)N2CCC1CC2 | > 110 µM (inactive) |
| Cc1ccc(CNC(=O)c2cn(C3CCCCC3)c(=O)c3c2c2ccccc2n3C)o1 | > 110 µM (inactive) |
| Cc1ccc(/C=C2\C(=O)NC(=S)N(c3ccc(F)cc3)C2=O)s1 | 11 µM |
| Cc1ccccc1OCc1nnc(SCC(=O)Nc2ccc3c(c2)oc2ccccc23)n1C | > 110 µM (inactive) |
| COc1ccc(-c2csc(NC3OC(=O)c4c3ccc(OC)c4OC)n2)cc1OC (stereo not drawn) | > 110 µM (inactive) |
| O=C(/C=C/c1ccncc1)c1ccc2c(c1)OCCO2 | 31.1 µM |
| COc1cc2c(cc1O)C(SC)=NC(C)(C)C2 | 31.8 µM |
| CC1=NN(c2ccc(C(=O)O)cc2)C(=O)/C1=C\c1ccc(OC(=O)c2cccs2)cc1 | 11.8 µM |
